3 molecules from PMC6697681, “The predominance of nucleotidyl activation in bacterial phosphonate biosynthesis” (Nature Communications, 2019) can be followed below.

Test [1] has as its target T1, Tde-PntC (Tde1415) (Treponema denticola, UniProt Q73MU2).
T1 construct: full two-domain protein (N-terminal PntC, C-terminal AEPT), C-terminal His tag, pET21b (pGH3000), E. coli BL21(DE3); ~70 kDa monomer, dimer ~146 kDa by DLS
Nature of the test: X-ray crystal structure. Conditions: AEPT domain, non-covalently bound PLP. In kind it is binding.

Test [2] has as its target T2, Ari-PntC (Ari1348) (Lancefieldella rimae, UniProt B9CM12).
T2 construct: codon-optimized gene in pET29 (pGH2000), C-terminal His6 tag, E. coli BL21(DE3), Ni-NTA and anion exchange; monomer by DLS
Nature of the test: coupled pyrophosphate release assay (EnzChek, MESG/PNP), initial rates. In kind it is biochemical. As to conditions: substrate inhibition constant; saturating CTP (4 mM), 7 mM MgCl2, room temperature. The source says: coupled pyrophosphate release assay (EnzChek, MESG/PNP), initial rates on Ari-PntC (Ari1348)

The target in test [3] is T3, Spn-LicC (Streptococcus pneumoniae, UniProt Q8DPI6).
T3 construct: monomer by DLS
The description is as above. The test is classed as biochemical. As to conditions: substrate inhibition constant; saturating CTP (4 mM), 7 mM MgCl2, room temperature. The text has this: coupled pyrophosphate release assay (EnzChek, MESG/PNP), initial rates on Spn-LicC

The target in test [4] is T1, Tde-PntC (Tde1415). Nature of the test: X-ray crystal structure, […] Å. The test is classed as binding. As to conditions: PntC active site, two Mg2+; crystallised with 5 mM CTP and 5 mM AEP.

Structures are written as SMILES.

T1 sequence (Q73MU2 whole entry): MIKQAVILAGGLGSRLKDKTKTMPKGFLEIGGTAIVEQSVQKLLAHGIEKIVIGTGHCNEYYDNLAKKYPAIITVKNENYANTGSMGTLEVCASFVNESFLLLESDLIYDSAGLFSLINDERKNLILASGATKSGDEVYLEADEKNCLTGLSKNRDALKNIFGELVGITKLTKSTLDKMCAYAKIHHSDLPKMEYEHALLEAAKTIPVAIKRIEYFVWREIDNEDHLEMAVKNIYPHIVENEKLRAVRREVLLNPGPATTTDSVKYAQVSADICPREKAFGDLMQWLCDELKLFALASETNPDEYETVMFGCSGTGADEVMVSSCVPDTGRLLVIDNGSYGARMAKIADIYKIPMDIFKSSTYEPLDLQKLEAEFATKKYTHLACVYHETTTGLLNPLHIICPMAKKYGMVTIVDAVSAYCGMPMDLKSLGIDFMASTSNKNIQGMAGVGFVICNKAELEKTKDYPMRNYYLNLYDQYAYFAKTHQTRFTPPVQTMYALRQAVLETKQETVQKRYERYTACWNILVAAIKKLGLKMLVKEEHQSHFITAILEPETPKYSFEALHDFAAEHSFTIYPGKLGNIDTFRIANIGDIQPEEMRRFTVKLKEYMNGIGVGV
T2 sequence (B9CM12 whole entry): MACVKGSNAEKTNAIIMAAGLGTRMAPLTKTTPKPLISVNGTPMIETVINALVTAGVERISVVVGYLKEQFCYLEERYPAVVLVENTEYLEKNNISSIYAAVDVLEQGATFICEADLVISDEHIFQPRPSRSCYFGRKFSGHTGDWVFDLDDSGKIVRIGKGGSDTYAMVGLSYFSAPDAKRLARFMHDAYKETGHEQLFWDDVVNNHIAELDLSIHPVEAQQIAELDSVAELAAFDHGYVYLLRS
T3 sequence (Q8DPI6 whole entry): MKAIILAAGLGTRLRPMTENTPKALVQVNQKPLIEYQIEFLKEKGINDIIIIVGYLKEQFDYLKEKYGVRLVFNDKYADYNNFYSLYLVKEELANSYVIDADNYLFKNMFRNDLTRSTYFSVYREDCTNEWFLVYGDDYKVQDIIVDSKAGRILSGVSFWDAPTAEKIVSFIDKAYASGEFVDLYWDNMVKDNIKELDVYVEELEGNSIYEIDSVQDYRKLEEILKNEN

For the molecule `Cc1ncc(COP(=O)(O)O)c(C=O)c1O` [PLP], the X-ray crystal structure entry in test [1] was “The AEPT domain of Tde1415 possesses PLP and the requisite active site features”.
Take `C[N+](C)(C)CCOP(=O)([O-])O` [P-Cho]: the KS in test [2] is recorded as 4 ± 1 mM; in test [3] it was 6.4 ± 0.9 mM.
Consider `NCCP(=O)(O)OP(=O)(O)OC[C@H]1O[C@@H](n2ccc(N)nc2=O)[C@H](O)[C@@H]1O` [CMP-AEP], for which the “X-ray crystal structure, 1.95 Å” value in test [4] was “Tde1415 and Tde1415:CMP-AEP have been deposited in the Protein Data Bank”.
